Assay results: PMC10963303 (Pharmacology Research & Perspectives, 2024)
Read-outs that look alike come from different tables or passages of the source.

Legend:
[1] = system: 80 known receptors, ion channels, and enzyme targets; test: Screen of 80 known receptors, ion channels, and enzyme targets; details: concentrations up to 10 μM; internal data
[2] = human, in vivo, po, 100 mg
[3] = system: human P‐gp, BCRP, BSEP, MATE1, MATE2‐K, OAT1, OAT3, OATP1B1, OATP1B3, OCT1, OCT2; details: tested transporter panel (ulotaront: except OCT2); cited from earlier work
[4] = system: OAT3; details: at 50 μM; cited from earlier work
[5] = system: MATE1; details: at 50 μM; cited from earlier work
[6] = target: T1, OCT2 (Homo sapiens, UniProt O15244); set-up: […]; from tissue; host or cells: kidney of adult human subjects with schizophrenia (in vivo clinical study); details: cited from earlier work
T1 sequence (O15244 1-555): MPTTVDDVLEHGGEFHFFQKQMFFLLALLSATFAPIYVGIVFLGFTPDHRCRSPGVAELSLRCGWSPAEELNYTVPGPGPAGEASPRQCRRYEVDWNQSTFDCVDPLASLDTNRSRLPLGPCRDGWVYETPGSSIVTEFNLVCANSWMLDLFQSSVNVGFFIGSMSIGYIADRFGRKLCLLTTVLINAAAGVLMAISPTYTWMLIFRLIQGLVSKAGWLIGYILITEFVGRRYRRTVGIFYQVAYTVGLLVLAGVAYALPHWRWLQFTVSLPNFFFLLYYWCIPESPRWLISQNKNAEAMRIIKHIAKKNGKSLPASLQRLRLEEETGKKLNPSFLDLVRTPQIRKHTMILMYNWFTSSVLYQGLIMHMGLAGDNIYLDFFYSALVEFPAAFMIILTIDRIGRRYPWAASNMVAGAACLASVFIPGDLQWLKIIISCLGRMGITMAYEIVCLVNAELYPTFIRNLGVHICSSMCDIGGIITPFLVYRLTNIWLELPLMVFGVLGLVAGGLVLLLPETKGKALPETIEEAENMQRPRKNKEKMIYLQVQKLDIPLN

[7] = plasma; placebo + metformin‐HCl 850 mg single dose
[8] = clinical; details: human, in vivo
[9] = target: T1, OCT2; test: clinical; details: plasma, oral

O=C(O)[C@@H]1OCCc2ccsc21 [SEP‐383103]
binding or functional activity in screen of 80 targets [1]: did not identify binding or functional activity | AUCinf, Geometric mean (CV%) [2]: 2510 (30.1) ng * h/mL | AUCinf, Mean (SD) [2]: 2620 (797) ng * h/mL | AUCinf, Median (min, max) [2]: 2490 (1550, 4810) ng * h/mL | AUClast, Geometric mean (CV%) [2]: 2520 (29.7) ng * h/mL | AUClast, Mean (SD) [2]: 2630 (780) ng * h/mL | AUClast, Median (min, max) [2]: 2490 (1540, 4760) ng * h/mL | C max, Geometric mean (CV%) [2]: 150 (22.6) ng/mL | C max, Mean (SD) [2]: 154 (34.9) ng/mL | C max, Median (min, max) [2]: 156 (99.7, 255) ng/mL | t 1/2, Mean (SD) [2]: 9.17 (1.78) h | t max, Median (min, max) [2]: 6.00 (3.00, 8.00) h | inhibitor of human efflux and uptake transporters [3]: not an inhibitor | inhibition of OAT3 [4]: ~ 35% | inhibition of MATE1 [5]: ~ 20%

C[C@@H]1CCO[C@H]2Cn3cc(C(=O)NCc4ccc(F)cc4F)c(=O)c(O)c3C(=O)N12 [dolutegravir]
increase of metformin AUC ([6]; co‐administration of 50 mg dolutegravir bid): 145% | increase of metformin AUC ([6]; co‐administration of 50 mg dolutegravir qd): 79% | unbound C max/IC50 ratio (OCT2) ([6]; dolutegravir oral 50 mg qd or bid): 2–3.6

CN(C)C(=N)N=C(N)N [metformin]
t max, Median (min, max) [7]: 4.0 (2.0, 5.0) h | Cmax [8]: 1130 ng/mL | Tmax [8]: 4.5 h | Vd/F [8]: 1280 L | CL renal ([8]; po, 850 mg): 287 mL/min | AUC(0-inf) [9]: 12500 ng·h/mL
